Test results taken from PMC5130005, “Indolin-2-one compounds targeting thioredoxin reductase as potential anticancer drug leads” (Oncotarget, 2016).

Key:
TrxR in MCF-7 cells = target: T1, TrxR in MCF-7 cells (Homo sapiens, UniProt Q16881); experiment: cellular TrxR activity in MCF-7 cell lysates (insulin reduction assay); type: cell-based; conditions: for cellular TrxR activity, MCF-7 cells: 10 h treatment, 20, 30, 40 and 50 μM
T1 construct: Lysates of MCF-7 cells treated with indicated concentrations of selected SCA analogs for 10 h; endogenous in cells; host or cells: MCF-7
T1 sequence (Q16881 1-499 isoform Q16881-5): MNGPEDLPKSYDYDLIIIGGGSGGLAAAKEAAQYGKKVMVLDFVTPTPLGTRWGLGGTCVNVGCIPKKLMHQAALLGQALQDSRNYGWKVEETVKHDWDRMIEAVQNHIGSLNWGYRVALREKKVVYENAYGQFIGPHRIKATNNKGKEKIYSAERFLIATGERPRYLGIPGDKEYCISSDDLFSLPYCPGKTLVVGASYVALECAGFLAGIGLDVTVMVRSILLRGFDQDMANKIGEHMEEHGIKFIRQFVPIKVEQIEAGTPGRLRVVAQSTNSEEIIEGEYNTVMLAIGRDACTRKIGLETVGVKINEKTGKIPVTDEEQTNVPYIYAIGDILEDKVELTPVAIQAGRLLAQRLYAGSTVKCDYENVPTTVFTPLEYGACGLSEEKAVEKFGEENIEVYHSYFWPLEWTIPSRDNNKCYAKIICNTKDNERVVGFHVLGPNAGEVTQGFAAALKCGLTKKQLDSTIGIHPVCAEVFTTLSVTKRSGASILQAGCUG
Description: Cells were seeded onto 100 mm or 60 mm culture plates and upon reaching ~70% confluency, they were subjected to drug treatment for indicated durations. Pellets of compound-treated or DMSO control cells comprising both attached and floating cells were collected and lysed in lysis buffer (25 mM Tris-HCl pH 7.5, 100 mM NaCl, 2.5 mM EDTA, 2.5 mM EGTA, 20 mM NaF, 1 mM Na3VO4, 20 mM sodium β-glycerophosphate, 10 mM sodium pyrophosphate, 0.5% Triton X-100) with freshly added protease inhibitor cocktail (Roche Diagnostics). Prior to being used in Western blot analysis and/or cellular TrxR, GR, Trx and GPx activity determination, lysates were precleared by centrifugation and protein concentrations were determined using a modified Bradford assay (Bio-Rad Laboratories) as described in the manufacturer's manual. This procedure for collecting whole cell lysate was used for all experiments except for the Trx-redox state determination experiment. Equal amounts of protein (50 μg) in each lysate sample were separated by SDS-PAGE, followed by electroblotting onto nitrocellulose membranes. Electroblotted proteins on membranes were probed with a primary antibody and subsequently by a secondary antibody conjugated to HRP.
Freshly collected cell lysates were used for measurement of activity of cellular Trx and TrxR. To measure TrxR activity, in each well of a 96-well plate, 25 μg of cell lysate was incubated in a final volume of 50 μl containing 85 mM Hepes (pH 7.6), 0.3 mM insulin, 10 μM rhTrx1, 2.5 mM EDTA and 660 μM NADPH for 40 min at 37°C. Controls containing lysates and all reaction reagents except rhTrx1 for each lysate sample were also set up. 200 μl of 1 mM DTNB in 6 M guanidine-HCl, 200 mM Tris-HCl pH 8.0 solution was added to quench the reaction. The amount of free thiols generated from insulin reduction was determined by DTNB reduction at 412 nm using the VersaMax microplate reader. To measure Trx activity, procedures were carried out similar to those for determining cellular TrxR activity, except that the cell lysates were incubated for 20 min with 300 nM recombinant rat TrxR in place of rhTrx1. Controls containing lysates and all reaction reagents except recombinant rat TrxR for each lysate sample were also set up. For each sample, Trx or TrxR activity was calculated as the absorbance at 412 nm subtracted from that of the corresponding control and expressed as a percentage of the activity measured in DMSO-treated cells.

recombinant rat TrxR = target: T2, recombinant rat TrxR (Rattus norvegicus, UniProt O89049); experiment: in vitro TrxR DTNB reduction assay; type: biochemical; conditions: 30 min incubation, 100 nM recombinant rat TrxR, 200 μM NADPH, read-out: TrxR inhibition IC50
T2 construct: made in house
T2 sequence (O89049 1-499): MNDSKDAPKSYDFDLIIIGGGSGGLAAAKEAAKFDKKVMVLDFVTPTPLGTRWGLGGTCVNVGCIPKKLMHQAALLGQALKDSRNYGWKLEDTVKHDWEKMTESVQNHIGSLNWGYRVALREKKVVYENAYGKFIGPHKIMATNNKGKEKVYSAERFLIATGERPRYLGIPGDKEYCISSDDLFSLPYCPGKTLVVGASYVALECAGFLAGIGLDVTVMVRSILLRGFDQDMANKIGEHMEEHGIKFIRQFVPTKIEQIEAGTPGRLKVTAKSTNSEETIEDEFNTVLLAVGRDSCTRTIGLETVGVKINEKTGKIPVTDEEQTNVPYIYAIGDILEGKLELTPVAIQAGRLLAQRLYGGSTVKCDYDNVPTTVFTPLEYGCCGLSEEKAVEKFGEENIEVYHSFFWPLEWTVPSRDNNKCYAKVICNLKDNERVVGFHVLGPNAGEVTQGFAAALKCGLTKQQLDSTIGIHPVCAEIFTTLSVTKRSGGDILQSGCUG
Description: In a volume of 100 μl of 50 mM Tris-HCl pH 7.5, 2 mM EDTA buffer (TE buffer), compounds of concentrations 1-100 μM were incubated with 100 nM recombinant rat TrxR and 200 μM NADPH at room temperature in 96-well plates for 30 and 60 min. The incubation was terminated by addition of 100 μl per well of 10 mM DTNB, 200 μM NADPH solution in TE buffer and immediately followed by measurement of linear increase of absorbance at 412 nm for the initial 2 min using the VersaMax microplate reader (Molecular Devices). The results were expressed as % of TrxR activity of drug-treated sample over that of DMSO control. The 50% inhibition concentration (IC50) values were calculated.

MCF-7 cells = experiment: MTT cell viability assay, MCF-7 cells; type: cell-based; conditions: Homo sapiens, MCF7, 72 h, mean ± SD of 3 experiments; for GI50: read-out: GI50 (50% growth inhibition concentration), MCF-7 cells; for CC50: read-out: LC50 (50% lethal concentration), MCF-7 cells
Description: (§1) HCT 116 and MCF-7 cells were seeded in 96-well plates at a density of 1 × 10^4 cells/well and allowed to grow for 20-24 h before addition of test compounds. DMSO stocks of indolin-2-one compounds were serially diluted in medium each time an assay was performed. Cell viability was determined at the time of compound addition (time 0) and after 72 h of compound treatment by reduction of 3-(4,5-dimethylthiazol-2-yl)-2,5-diphenyltetrazolium bromide (MTT) by dehydrogenases in viable cells. MTT was added into each well (final concentration 400 μg/ml) and the plates were incubated for 4 h at 37°C. The supernatants were aspirated and upon solubilization of the formed formazan crystals in DMSO:glycine buffer pH 10.5 (ratio 4:1), absorbance at 550 nm was measured. 50% growth inhibition concentrations (GI50) and 50% lethal concentrations (LC50) values were calculated.

HCT 116 cells = experiment: MTT cell viability assay, HCT 116 cells; type: cell-based; conditions: Homo sapiens, 72 h, mean ± SD of 3 experiments; for GI50: read-out: GI50 (50% growth inhibition concentration), HCT 116 cells
Description: as §1

| Structure (SMILES) | cellular TrxR activity, MCF-7 cells (TrxR in MCF-7 cells) | IC50 (recombinant rat TrxR) [µM] | GI50 (MCF-7 cells) [µM] | CC50 (MCF-7 cells) [µM] | GI50 (HCT 116 cells) [µM] | LC50 (50% lethal concentration) (HCT 116 cells) [µM] | cellular TrxR activity at 40 and 50 μM, MCF-7 cells (TrxR in MCF-7 cells; 10 h treatment, 40 and 50 μM, p < 0.05 vs DMSO) |
| --- | --- | --- | --- | --- | --- | --- | --- |
| CC(=O)C=C1C(=O)N(C)c2ccccc21 [Compound 1, 1-methyl-3(2-oxopropylidene)indolin-2-one] | did not cause apparent inhibition | 22.1 ± 1.8 | 15.1 ± 4.1 | 27.6 ± 0.4 | 11.8 ± 3.3 |  |  |
| CCCCN1C(=O)/C(=C/C(C)=O)c2ccccc21 [Compound 4] | decrease in TrxR activity in a dose-dependent manner | 8.6 ± 0.9 | 6.4 ± 1.5 | 22.4 ± 3.6 | 4.5 ± 0.9 | 9.7 ± 0.2 |  |
| CC(=O)/C=C1/C(=O)N(Cc2ccccc2)c2ccccc21 [Compound 5] | decrease in TrxR activity in a dose-dependent manner | 6.2 ± 1.7 | 4.5 ± 0.6 | 9.6 ± 0.2 | 3.2 ± 0.1 | 9.4 ± 0.3 | significant reduction |
| CN1C(=O)/C(=C/C(=O)c2ccccc2)c2ccccc21 [Compound 6] | did not cause apparent inhibition | 14.7 ± 3.2 | 14 ± 3.7 | 27.1 ± 0.5 | 8.5 ± 0.8 | 27.2 ± 2.4 |  |
